# Source: ChEMBL document CHEMBL1201862, “PubChem BioAssay data set” (2004)
#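 Following 48 hours of exposure in 96-well plates, responses at five concentrations were used to interpolate endpoints linearly. GI50 = concentration required for 50% inhibition of growth.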 Active and inactive are the calls of the source. Rule as the data show it: active = GI50 up to about 1.1 µM and inactive = higher.
# How the values were obtained:
# Test in all cases: NCI tumour cell line growth inhibition, 48 h
# [1] = tested on: T47D
# [2] = tested on: OVCAR-8
# [3] = tested on: 786-0
# [4] = tested on: HOP-92
# [5] = tested on: SK-MEL-5
# [6] = tested on: HL-60
# [7] = tested on: UACC-257
# [8] = tested on: SNB-75
# [9] = tested on: MOLT-4
# [10] = tested on: SK-MEL-28
# [11] = tested on: NCI-H23
# [12] = tested on: M14
# [13] = tested on: SR
# [14] = tested on: OVCAR-5
# [15] = tested on: A549
# [16] = tested on: ACHN
# [17] = tested on: K562
# [18] = tested on: Malme-3M
# [19] = tested on: COLO 205
# [20] = tested on: RXF 393
# [21] = tested on: MDA-N
# [22] = tested on: LOX IMVI
# [23] = tested on: NCI-H522
# [24] = tested on: DU-145
# [25] = tested on: HCT-116
# [26] = tested on: BT-549
# [27] = tested on: CCRF-CEM
# [28] = tested on: HOP-62
# [29] = tested on: NCI-H460
# [30] = tested on: SW-620
# [31] = tested on: UO-31
# [32] = tested on: A498
# [33] = tested on: NCI-H226
# [34] = tested on: NCI/ADR-RES
# [35] = tested on: SK-MEL-2
# [36] = tested on: SF-268
# [37] = tested on: U-251
# [38] = tested on: IGROV-1
# [39] = tested on: PC-3
# [40] = tested on: MDA-MB-231
# [41] = tested on: HCC 2998
# [42] = tested on: RPMI-8226
# [43] = tested on: HT-29
# [44] = tested on: SF-295
# [45] = tested on: Hs-578T
# [46] = tested on: SK-OV-3
# [47] = tested on: HCT-15
# [48] = tested on: SNB-19
# [49] = tested on: TK-10
# [50] = tested on: EKVX
# [51] = tested on: MDA-MB-435
# [52] = tested on: UACC-62
# [53] = tested on: KM12
# [54] = tested on: OVCAR-4
# [55] = tested on: OVCAR-3
# [56] = tested on: SN12C
# [57] = tested on: SF-539
# [58] = tested on: MCF7
# [59] = tested on: CAKI-1
smiles,measurement,setting,value
CCOC(=O)CC/C(=N/Nc1ccc(Cl)cc1[N+](=O)[O-])C(=O)OCC,GI50,[1],93.3 µM (inactive)
same,GI50,[2],> 100 µM (inactive)
same,GI50,[3],> 100 µM (inactive)
same,GI50,[4],11.4 µM (inactive)
same,GI50,[5],> 100 µM (inactive)
same,GI50,[6],> 100 µM (inactive)
same,GI50,[7],> 100 µM (inactive)
same,GI50,[8],61.8 µM (inactive)
same,GI50,[9],> 100 µM (inactive)
same,GI50,[10],> 100 µM (inactive)
same,GI50,[11],> 100 µM (inactive)
same,GI50,[12],> 100 µM (inactive)
same,GI50,[13],45.7 µM (inactive)
same,GI50,[14],> 100 µM (inactive)
same,GI50,[15],> 100 µM (inactive)
same,GI50,[16],> 100 µM (inactive)
same,GI50,[17],> 100 µM (inactive)
same,GI50,[18],> 100 µM (inactive)
same,GI50,[19],> 100 µM (inactive)
same,GI50,[20],> 100 µM (inactive)
same,GI50,[21],> 100 µM (inactive)
same,GI50,[22],> 100 µM (inactive)
same,GI50,[23],> 100 µM (inactive)
same,GI50,[24],> 100 µM (inactive)
same,GI50,[25],> 100 µM (inactive)
same,GI50,[26],> 100 µM (inactive)
same,GI50,[27],> 100 µM (inactive)
same,GI50,[28],> 100 µM (inactive)
same,GI50,[29],> 100 µM (inactive)
same,GI50,[30],> 100 µM (inactive)
same,GI50,[31],> 100 µM (inactive)
same,GI50,[32],34.8 µM (inactive)
same,GI50,[33],> 100 µM (inactive)
same,GI50,[34],> 100 µM (inactive)
same,GI50,[35],> 100 µM (inactive)
same,GI50,[36],> 100 µM (inactive)
same,GI50,[37],> 100 µM (inactive)
same,GI50,[38],> 100 µM (inactive)
same,GI50,[39],> 100 µM (inactive)
same,GI50,[40],> 100 µM (inactive)
same,GI50,[41],26.2 µM (inactive)
same,GI50,[42],> 100 µM (inactive)
same,GI50,[43],> 100 µM (inactive)
same,GI50,[44],> 100 µM (inactive)
same,GI50,[45],> 100 µM (inactive)
same,GI50,[46],> 100 µM (inactive)
same,GI50,[47],> 100 µM
same,GI50,[48],> 100 µM (inactive)
same,GI50,[49],> 100 µM (inactive)
same,GI50,[50],> 100 µM (inactive)
same,GI50,[51],> 100 µM (inactive)
same,GI50,[52],> 100 µM (inactive)
same,GI50,[53],> 100 µM (inactive)
same,GI50,[54],> 100 µM (inactive)
same,GI50,[55],> 100 µM (inactive)
same,GI50,[56],> 100 µM (inactive)
same,GI50,[57],> 100 µM (inactive)
same,GI50,[58],> 100 µM (inactive)
COc1ccc2c(c1)/C(=C(\C(Cl)=C(\Cl)N1CCCCC1)[N+](=O)[O-])N2,GI50,[1],> 100 µM (inactive)
same,GI50,[2],87.5 µM (inactive)
same,GI50,[3],> 100 µM (inactive)
same,GI50,[4],> 100 µM (inactive)
same,GI50,[5],45.9 µM (inactive)
same,GI50,[6],> 100 µM (inactive)
same,GI50,[7],> 100 µM (inactive)
same,GI50,[8],> 100 µM (inactive)
same,GI50,[9],27.2 µM (inactive)
same,GI50,[10],> 100 µM (inactive)
same,GI50,[11],> 100 µM (inactive)
same,GI50,[12],> 100 µM (inactive)
same,GI50,[13],27.1 µM (inactive)
same,GI50,[14],> 100 µM (inactive)
same,GI50,[15],> 100 µM (inactive)
same,GI50,[16],> 100 µM (inactive)
same,GI50,[17],42.1 µM (inactive)
same,GI50,[18],> 100 µM (inactive)
same,GI50,[19],59.2 µM (inactive)
same,GI50,[20],64 µM (inactive)
same,GI50,[21],> 100 µM (inactive)
same,GI50,[22],> 100 µM (inactive)
same,GI50,[23],39.4 µM (inactive)
same,GI50,[24],> 100 µM (inactive)
same,GI50,[25],> 100 µM (inactive)
same,GI50,[26],98.6 µM (inactive)
same,GI50,[59],> 100 µM (inactive)
same,GI50,[27],40.7 µM (inactive)
same,GI50,[28],> 100 µM (inactive)
same,GI50,[29],> 100 µM (inactive)
same,GI50,[30],71 µM (inactive)
same,GI50,[31],> 100 µM (inactive)
same,GI50,[32],> 100 µM (inactive)
same,GI50,[33],29.6 µM (inactive)
same,GI50,[34],> 100 µM (inactive)
same,GI50,[36],> 100 µM (inactive)
same,GI50,[37],> 100 µM (inactive)
same,GI50,[38],90.6 µM (inactive)
same,GI50,[39],> 100 µM (inactive)
same,GI50,[40],> 100 µM (inactive)
same,GI50,[41],> 100 µM (inactive)
same,GI50,[43],> 100 µM (inactive)
same,GI50,[44],80.5 µM (inactive)
same,GI50,[45],> 100 µM (inactive)
same,GI50,[46],> 100 µM (inactive)
same,GI50,[47],> 100 µM
same,GI50,[48],> 100 µM (inactive)
same,GI50,[49],> 100 µM (inactive)
same,GI50,[50],48.9 µM (inactive)
same,GI50,[51],> 100 µM (inactive)
same,GI50,[52],> 100 µM (inactive)
same,GI50,[53],> 100 µM (inactive)
same,GI50,[54],87.5 µM (inactive)
same,GI50,[55],42.5 µM (inactive)
same,GI50,[56],> 100 µM (inactive)
same,GI50,[58],> 100 µM (inactive)
